Experimental data as given in patent publication US20240409582A1, “DESIGN AND CHARACTERIZATION OF INHIBITORY PEPTIDES (IPEPS) DERIVED FROM OF MIEN 1 PROTEIN SEQUENCE” (priority 2022, published 2024).
“Also recorded” adds a separate entry of the source.

Columns and labels:
MDA-MB-231 cells [1] = assay: Wound healing assay; format: cell-based, human; conditions: MDA-MB-231, dose-dependent, sub-IC50 concentrations, 18 h
Experimental: Wound healing assay: The wound-healing assay on highly metastatic MDA-MB-231 cells was performed to check the anti-migratory activity of the peptides. MDA-MB-231 cells were plated in a six-well tissue culture plate to form a sub-confluent cell monolayer. The monolayer was scraped with a sterile 200 μL pipette tip in the middle of the culture well to produce equal-sized wounds. Cell debris was removed and the scratched cell monolayer was supplemented with fresh media containing sub-IC 50 concentrations of MIEN1-derived peptide and its analogs. Wound areas were measured by ImageJ software after 18 h and were compared to control.

MDA-MB-231 cells [2] = assay: Transwell invasion assay; format: cell-based, human; conditions: MDA-MB-231, dose-dependent
Experimental: Transwell Invasion Assay: The capacity of human breast cancer MDA-MB-231 cells to pass through a polyethylene terephthalate membrane (6.4 mm diameter; 8 µm pore size) was measured using transwell chambers (Corning Life Sciences) in 24-well tissue culture plates. The MDA-MB-231 were pre-treated with the increasing concentrations of each peptide for 24 h in a 0.1% FBS containing DMEM media. Next day, cells were dislodged by trypsin and 40,000 cells/well were resuspended in a serum-free DMEM containing the second treatment of peptides and were added to the upper chamber, and 10% FBS containing media was added to the bottom chambers. After incubation for another 24 h, non-invasive cells on the upper surface of the membrane were carefully removed with a cotton swab; cells were fixed in 4% paraformaldehyde solution (Affymetrix USB) for 15 minutes followed by a PBS wash; the membrane insert was then fixed with ice-cold methanol for 20 minutes followed by staining with 0.25% crystal violet. The numbers of invaded cells were counted in random fields in Image J, and results were expressed as an average number of invaded cells compared with control.

[3] = system: focal adhesion kinase (FAK) phosphorylation at tyrosine 925; assay: Western blot, phosphorylation of FAK; format: cell-based, human; conditions: MDA-MB-231 cell lysates, 48 h
Experimental: (§1) Western blot analysis: MDA-MB-231 cells and DU-145 cells were treated with all the test peptides for 48 h. Cell lysates were prepared, and cellular protein was extracted using RIPA lysis buffer (Millipore). […] After blocking with 5% bovine serum albumin, the membrane was incubated with the primary antibodies specific for various proteins at 4° C. overnight. After primary antibody incubation, membrane was washed thrice in TBS containing 0.1% Tween-20 for 5 min each and then incubated with appropriate HRP-conjugated secondary antibody. The immunoreactive protein bands were visualized by enhanced chemiluminescence (ECL) on Alpha Innotech chemiluminescent detection system.

[4] = system: phosphorylated cofilin (inactive cofilin); assay: Western blot, phosphorylated cofilin; format: cell-based, human; conditions: whole cell lysates of MDA-MB-231 and DU-145 cells, 48 h
Experimental: as §1

[5] = system: phosphorylation of src at tyrosine 416; assay: Western blot, phosphorylation of src; format: cell-based, human; conditions: MDA-MB-231, 48 h
Experimental: as §1

[6] = system: EMT genes (E-cadherin, N-Cadherin, SLUG, SNAIL, MMP-9, Zeb-1) in DU-145 prostate cancer cells; assay: RT-qPCR of EMT genes in DU-145 cells; format: cell-based, human; conditions: DU-145, qPCR
Experimental: RT-qPCR Method: The changes in the mRNA levels of various genes in response to the peptide treatment in DU-145 cells were examined. Briefly, total RNA was purified using the TRIzol reagent (Invitrogen) according to the manufacturer's instructions. 1 μg of total RNA was reverse transcribed into cDNA using the Superscript-III First-Strand Synthesis kit (Invitrogen) following the manufacturer's protocol. RT-qPCR was performed with the SYBR Green Master Mix (Invitrogen) in a Realplex2 Mastercycler ep gradient S thermal cycler (Eppendorf). The PCR program followed for all the primers was an activation at 95° C. for 15 min, followed by 40 cycles of 95° C. for 30 sec, 54° C. for 1 min, and 72° C. for 45 sec. The reaction was finally put to hold at 4 C. The primers were synthesized by Integrated DNA Technologies (Coralville, IA and are described in Table 2. 18S was used as the reference genes for the mRNA levels. Fold-expression was calculated according to the ΔΔCt method.

[7] = system: MDA-MB-231 orthotopic tumors; assay: Orthotopic breast cancer model in athymic nude mice; format: in vivo; conditions: for tumor growth: 30 mg/kg peritumoral every alternate day, 30 days; for decrease of tumor volume: 30 mg/kg peritumoral on alternate days, vs control
Experimental: Orthotropic Breast Cancer Models in Mice: All in vivo experiments were conducted on 6-8-week-old athymic nude mice (Charles River). MDA-M13-231 (1.5×10^6) cells were suspended in 50% Matrigel in DMEM high glucose (vol/vol) on ice for mammary fat pad injection. The control group received the same volume of matrigel (Corning Cat #356234) and media but no cells. […] Tumor volume was measured using a digital Vernier caliper on alternate days. The tumor volumes (mm3) were calculated using the following formula V=(W2×L)/2 (V, tumor volume: W, tumor width; L, tumor length). Mice were euthanized when rumors in the control group reached˜10% of body weight. At the end of the experiment, all animals were weighed, euthanized, and liver, lung, spleen, kidney brain, and tumors were harvested. The weights of tumors and organs were recorded.

MDA-MB-231 cells [8] = assay: RNA-seq transcriptome of MDA-MB-231 cells after peptide treatment; format: cell-based, human; conditions: MDA-MB-231, RNA-seq
Experimental: RNeasy Mini Kit (Cat #74106, Qiagen,) was used for RNA isolation and all procedures were performed according to the manufacturer's specification. The purification included 15 minutes of in-column DNase I (Cat #79254, Qiagen,) treatment. […] The quality was controlled using Agilent Tapestation and Qubit 4 fluorometer. Sequencing was on an illumina NextSeq 550 system as per the recommended protocol. Raw sequencing files were adapter trimmed and quality filtered using fastp. The reads were mapped to hg38 reference genome using Hisat2. Differential gene expression analysis was performed using Deseq2.

Substance: LAIAVK [LA3IK]
- number of migrated cells in the wound healing assay (MDA-MB-231 cells [1]): significantly reduced number of migrated cells
- number of invaded cells (MDA-MB-231 cells [2]): considerable decrease in the number of invaded cells
- phosphorylation of FAK at tyrosine 925 [3]: inhibited
- phosphorylation of FAK at tyrosine 925 ([3]; listed as LA31K): marked inhibition
- phosphorylated cofilin [4]: accumulation of phosphorylated cofilin
- phosphorylation of src at tyrosine 416 [5]: inhibited
- phosphorylation of src at tyrosine 416 ([5]; listed as LA31K): marked inhibition
- gene expression of SLUG, SNAIL, MMP 9, N-Cadherin and Zeb-1 [6]: significant decrease
- gene expression of epithelial marker E-Cadherin [6]: concomitant increase
- tumor growth [7]: decreased tumor growth significantly
- decrease of tumor volume [7]: 75.39%
- response as per RECIST ([7]; 30 mg/kg, human tumor equivalent): partial response
- changes in the transcriptome (MDA-MB-231 cells [8]): inhibited genes responsible for migration and cancer progression

Substance: RPPCVIL [RP-7]
- number of migrated cells in the wound healing assay (MDA-MB-231 cells [1]): significantly reduced number of migrated cells
- number of invaded cells (MDA-MB-231 cells [2]): considerable decrease in the number of invaded cells
- phosphorylation of FAK at tyrosine 925 [3]: inhibited; also recorded: marked inhibition
- phosphorylated cofilin [4]: accumulation of phosphorylated cofilin
- phosphorylation of src at tyrosine 416 [5]: inhibited; also recorded: marked inhibition
- gene expression of SLUG, SNAIL, MMP 9, N-Cadherin and Zeb-1 [6]: significant decrease
- gene expression of epithelial marker E-Cadherin [6]: concomitant increase
- tumor growth [7]: decreased tumor growth significantly
- decrease of tumor volume [7]: 37.43%
